We go through 2 molecules from patent US20220008298A1, “OLEOGELS IN UV ABSORBER COMPOSITIONS” (BASF SE, priority 2011, published 2022).

Data set [1] can be described thus: interfacial tension of the oil to water. Format: physicochemical. The text has this: (§1) The smaller the interfacial tension of the oil towards water, the more polar it is. This is in line with the values of Log Poctanol/water.
Data set [2] is described as follows: Log P octanol/water of the oil. Format: physicochemical.
Text: as §1

SMILES strings stand for the structures.

For `CCCCOC(=O)CCCCC(=O)OCCCC` [Dibutyl Adipate], the “Interf. tension to water, γ” value in data set [1] is recorded as 14.3 mN/m. Further, the “Log Poctanol/water” value in data set [2] stood at 3.9.

With `CCCCC(CC)COC(=O)OCC(CC)CCCC` (stereo not shown) [Diethylhexyl Carbonate], the “Interf. tension to water, γ” value in data set [1] came out at 29.1 mN/m. Also, in data set [2], the “Log Poctanol/water” value was 6.8.
